Assay [1] deals with NCI-N87, a human gastric carcinoma cell line. Briefly: In vitro cytotoxicity (MTT) assay. Particulars: NCI-N87 cells, 120 hours incubation, read-out: N87 cell (Ag+) IC50. The assay is classed as cell-based. As to the method:
The cell line used in the cytotoxicity assays was NCI-N87, a human gastric carcinoma cell line. The cells were grown in RPMI-1640 with 10% FBS. To run the assay, the cells (180 μl, 6000 cells) were added to each well in a 96-well plate and incubated for 24 hours at 37° C. with 5% CO2. Next, the cells were treated with test compounds (20 μl) at various concentrations in appropriate cell culture medium (total volume, 0.2 mL). The control wells contain cells and the medium but lack the test compounds. The plates were incubated for 120 hours at 37° C. with 5% CO2. MTT (5 mg/ml) was then added to the wells (20 μl) and the plates were incubated for 1.5 hr at 37° C. The medium was carefully removed and DMSO (180 μl) was added afterward. After it was shaken for 15 min, the absorbance was measured at 490 nm and 570 nm with a reference filter of 620 nm. The inhibition % was calculated according to the following equation: inhibition %=[1-(assay-blank)/(control-blank)]×100.

Assay [2] concerns human gastric carcinoma N-87 cell line tumor xenograft. As to the kind of experiment: Antitumor activity in vivo, tumor xenograft model. On the set-up: species or system BALB/c Nude mice. The procedure:
The in vivo efficacy of conjugates 196a, 201, 206, 354, 358, 370, 377, 385, and 407 along with T-DM1 were evaluated in a human gastric carcinoma N-87 cell line tumorxenograft models. Five-week-old female BALB/c Nude mice ([…]) were inoculated subcutaneously in the area under the right shoulder with N-87 carcinoma cells (5×10^6 cells/mouse) in 0.1 mL of serum-free medium. The tumors were grown for 8 days to an average size of 130 mm^3. The animals were then randomly divided into […] (6 animals per group). The first group of mice served as the control group and was treated with the phosphate-buffered saline vehicle. The remaining […] were treated with conjugates 196a, 201, 206, 354, 358, 370, 377, 385, 407 and T-DM1 respectively at dose of 6 mg/Kg administered intravenously. Three dimensions of the tumor were measured every 4 days and the tumor volumes were calculated using the formula tumor volume=1/2 (length×width×height). The weight of the animals was also measured at the same time. A mouse was sacrificed when any one of the following criteria was met: (1) loss of body weight of more than 20% from pretreatment weight, (2) tumor volume larger than 1500 mm^3, (3) too sick to reach food and water, or (4) skin necrosis. A mouse was considered to be tumor-free if no tumor was palpable.

What is called IC50 is the midpoint of a concentration-inhibition curve.

Take T-DM1: in assay [1], the IC50 was 0.07 nM. Besides, in assay [2] (6 mg/Kg intravenously), the “duration of tumor growth inhibition” value was determined as 38 days. Besides, in assay [2] (6 mg/Kg, i.v., one injection), the “elimination / eradication of the tumors” value is given as “not able to eliminate the tumors”.

Values taken from patent US11129910B2, “Specific conjugation linkers, specific immunoconjugates thereof, methods of making and uses such conjugates thereof” (priority 2016, dated 2021).
